No end group written: not given here.
Assays:
Type in all cases: cell-based, human
PBL [1] = test: Proliferation of PBL, DC indirect presentation (peptide-pulsed autologous DC); settings: for IS (SI of the peptides as indicated in Table 7): one out of five experiments; for IS (SI of the peptides as indicated in Table 7) / Optimal dose via DC: six donors; for Optimal dose via DC: optimal dose required for PBL activation; for Optimal dose via DC / Peak of Proliferation (Hours) via DC: average of 5 experiments; for Peak of Proliferation (Hours) via DC: visual inspection by light microscopy daily during 5 days; for IS (as indicated in Table 12): two donors
Protocol: (§1) Human PBMC were separated from buffy coat samples of naive donors using Ficoll UNI-SEPmaxi tube. Separated cells were suspended in RPMI medium supplemented with 10% FCS, L-Glutamine, Sodium Pyruvate, MEM-EAGLE non-essential amino-acids, HEPES and Gentamycin Sulphate (Bet-Haemek Industries, IL) and cultivated for 4 h at 37° C. in a culture dish (Corning 150 mm×25 mm). Adherent cells were collected and cultured for 7 days in serum free DCCM-1 medium supplemented with L-Glutamine, huIL-4 (1000 IU/ml) (Cytolab IL) and GM-CSF-80 ug/ml (Cytolab IL). On day seven floating cells were collected and loaded with 50 ug/ml of examined peptide for 18 h at 37° C.
(§2) Proliferation analysis was conducted in three different methods. In all three methods, plates were cultured for 3-5 days under visual control and then 0.5 […]Cu/well of 3[H] (Amersham) was added for additional culture of to 18 h at 37° C. In the last step, plates were harvested and the radioactive counts were measured in a □ counter. • 1. DC indirect presentation: In the first method, 100 µl of 2×10^6 thawed PBL were placed in U-shape Bottom 96 well plate (Nunc) with RPMI medium supplemented with 5% H AB serum, L-Glutamine, Sodium Pyruvate, MEM-EAGLE non-essential amino-acids, HEPES and Gentamycin. At the next stage 100 µl of 25×10^4 peptide-pulsed DC were added to each three wells of PBL and underwent proliferation analysis as described above. • 2. PBL direct presentation: In the 2nd method, 100 µl of 2×10^6 PBL were placed in Flat Bottom 96 well plates (Corning) and stimulated with different concentrations (0.05 ug/ml-2 ug/ml) of peptides. In the next step the cells underwent proliferation analysis as described above. • 3. PBMC direct presentation: In third method PNMC were used under similar conditions as described for the second method.
In the first set of experiments, the 21mer ImMucin, its different 9mer epitopes and other control epitopes (Table 3) were evaluated in proliferation assays with the aim of finding their optimal mode of presentation, stimulated dose as well as their peak of activity (time wise).
To evaluate the most efficient method for priming of PBLs with the different peptides, the following methods were compared:
a. In-direct presentation of the peptide via Autologues-pulsed DC
(§3) Five experiments were performed according to the protocol described in material and methods with buffy-coat enriched PBLs obtained from six different naive donors (obtained from the Israeli blood bank).

[2] = test system: ImMucin specific T-cell subpopulation; test: Proliferation of the ImMucin-specific T-cell subpopulation after three stimulations; settings: one out of two experiments, four donors
Source text: (§4) Thawed PBLs underwent 1st stimulation with ImMucin pulsed Autologues DC at a ratio of 20:1 and cultured for 7 days in dedicated T cell Medium. T cell medium contained RPMI medium supplemented with 10% FCS, L-Glutamine, Sodium Pyruvate, MEM-EAGLE non-essential amino-acids, HEPES and Gentamycin Sulphate (Bet-Haemek Industries, IL) as well as with 50 IU/ml of recombinant IL-7 (Cytolab IL). For the second stimulation, PBL were transferred to adherent autologues ImMucin-pulsed PBMC and cultured for additional 5 days in T cell Medium. At the end of the 5 days, medium was partial replaced with fresh medium containing 1 ug/ml of ImMucin and 50 IU/ml IL-2 for a third stimulation of 48 h at 37° C. Following the last stimulation ImMucin T cell line was checked for immune activation properties.
as §2
(§5) For that purpose, an enriched ImMucin-specific T cell subpopulation was produced via repeated stimulation with ImMucin. The specificity of the subpopulation for ImMucin, as well as to the other VXL epitopes, was examined using proliferation assays, cytokine release assays, FACS analysis in which the percentage and type of cells enriched during the enrichment process was analyzed, and using a CTL assay against selected target cells.
(§6) For producing the specific T cell subpopulation PBL were stimulated three times for 7, 5 and 2 days with ImMucin presented via DC and PBMC. Following the 3rd stimulation the cells were evaluated against the different VXL epitopes.

PBL [3] = test: Proliferation of PBL, direct presentation of peptide without APC; settings: for Optimal dose Direct no APC: optimal dose required for PBL activation, six donors; for Optimal dose Direct no APC / Peak of Proliferation (Hours) Direct no APC: average of 5 experiments; for Peak of Proliferation (Hours) Direct no APC: visual inspection daily during 5 days
Protocol: In all three methods, plates were cultured for 3-5 days under visual control and then 0.5 □Cu/well of 3[H] (Amersham) was added for additional culture of to 18 h at 37° C. […] DC indirect presentation: In the first method, 100 µl of 2×10^6 thawed PBL were placed in U-shape Bottom 96 well plate (Nunc) with RPMI medium supplemented with 5% H AB serum, L-Glutamine, Sodium Pyruvate, MEM-EAGLE non-essential amino-acids, HEPES and Gentamycin. At the next stage 100 µl of 25×10^4 peptide-pulsed DC were added to each three wells of PBL and underwent proliferation analysis as described above. • 2. PBL direct presentation: In the 2nd method, 100 µl of 2×10^6 PBL were placed in Flat Bottom 96 well plates (Corning) and stimulated with different concentrations (0.05 ug/ml-2 ug/ml) of peptides. In the next step the cells underwent proliferation analysis as described above. • 3. PBMC direct presentation: In third method PNMC were used under similar conditions as described for the second method.
Direct presentation of peptides to PBL without any APC

PBL [4] = test: ELISA of cytokine secretion by PBL stimulated once with peptide-pulsed DC
Protocol: as §1
(§7) Cytokine release was studied during the culture of stimulated T-cells. The evaluated samples were collected from the T cell culture medium on day 2, 3, and 5 and stored until use at −20° C.
(§8) […] of the selected capture antibody (e.g. anti-Hu IFN-Gamma, or anti-Hu TNF-alfa or anti IL-2) were added to each well at the final concentration of 5 μg/ml in PBS. Plates were incubated for 2 h at R.T. or over night at 4° C. Next, […] of blocking solution were added for an incubation of 2 h at R.T. […] of evaluated samples were added in duplicate into 2 wells for 2 hours at RT. After 2 h of incubation at R.T plates were washed λ4 times in washing solution. In the next step, a Biotin-conjugated detection antibody (relevant to coated antibody) was added at a final concentration of 10 μg/ml in total volume of 100 μl for 1 h at R.T. Finally, 100 μl/well working dilution (1:10000 in Blocker solution) of Streptavidin-HRP were added to each well and incubated for 1 h at R.T.
(§9) Plates were washed λ6 times with PBS-Tween (0.4%) and 100 μl/well of TMB/E Solution (CHEMICON, Catalog #ES001) was added. The plates were then exposed until blue color appeared in the wells of the positive control and no color was detected in the blank wells. To stop the color reaction, 50 μl/well of 10% of Sulfuric acid was added. The plates were counted in ELISA-Reader using a 450 nm filter.

PBMC = test: Proliferation, direct presentation of peptide via PBMC (monocytes); settings: for PBL Index of stimulation (SI) via PBMC: naive donors, representative of 5 experiments; for Optimal dose via PBMC: optimal dose required for PBL activation, six donors; for Optimal dose via PBMC / Peak of Proliferation (Hours) via PBMC: average of 5 experiments; for Peak of Proliferation (Hours) via PBMC: visual inspection daily during 5 days
Protocol: as §2
b. Direct presentation of the peptides via PBMC i.e. monocytes
as §3

[5] = test system: T-Cell specific subpopulation (Clones); test: ELISA of cytokine secretion by the T-cell specific subpopulation (clones) stimulated with peptides; settings: two experiments, four donors
Source text: as §4, §7, §8, §9, §5, §6

[6] = naive donors, CPM sample / CPM control, representative of 5 experiments
[7] = naive donors, representative of 5 experiments
[8] = peptide DC ratio 16:1, one out of five experiments, six donors
[9] = average of two healthy donors (Table 11)
[10] = peptide pulsed DC ratio 16:1, one out of two experiments, two donors (Table 12)

Compound	PBL Index of stimulation (SI) via DC (PBL [1]; [6])	IS (SI of the peptides as indicated in Table 7) (PBL [1])	Optimal dose via DC (PBL [1])	Peak of Proliferation (Hours) via DC (PBL [1])	IS (Average) [2]	IS (Range) [2]	PBL Index of stimulation (SI) Direct no APC (PBL [3]; [7])	Optimal dose Direct no APC (PBL [3])	Peak of Proliferation (Hours) Direct no APC (PBL [3])	IFN-gamma (PBL [4]; [8])	PBL Index of stimulation (SI) via PBMC (PBMC)	Peak of Proliferation (Hours) via PBMC (PBMC)	IL-2 % of clones [5]	IL-2 Range [5]	INF-gamma % of clones [5]	INF-gamma Range [5]	TNF-Alfa % of clones [5]	TNF-Alfa Range [5]	PBL Index of stimulation (SI) via DC (PBL [1]; [9])	PBL Index of stimulation (SI) Direct no APC (PBL [3]; [9])	also measured
CSCC[C@H](N)C(=O)N[C@@H](CC(C)C)C(=O)N[C@@H](CC(C)C)C(=O)N[C@@H](C)C(=O)N[C@H](C(=O)N[C@@H](CC(C)C)C(=O)N[C@@H](Cc1ccc(O)cc1)C(=O)N[C@@H](CS)C(=O)N[C@@H](CC(C)C)C(=O)O)C(C)C [VXL-11, MLLAVLYCL, reference compound]	1.65	1.65	12.5-25 × × 10e6/well	96 h	1.14	1-1.28	0	No Influence	No proliferation	0 ng/mL	1.25	96 h	0%	0 ng/mL	33%	2.2 to 4.7 ng/mL	0%	0 ng/mL	–	–	IL-2 (PBL [4]; [8]): 0 ng/mL; Optimal dose via PBMC (PBMC): 0.05 to 1 µg/mL
MWATQGLAVALALSVLPGSRA (MWATQGLAVALALSVLPGSRA; listed as Homo sapiens) [VXL-101, signal peptide vaccine derived from ARMET]	–	–	–	–	–	–	–	–	–	–	–	–	–	–	–	–	–	–	2.8	0	PBL Index of stimulation (SI) via DC (PBL [1]; average of two healthy donors (Table 11), listed as Armet): highest SI; IS (as indicated in Table 12) (PBL [1]): 2.8; IL-2 (PBL [4]; [10]): 0 ng/mL; TNF-Alfa (PBL [4]; [10]): 10.5 ng/mL
SPFFLLLLL [VXL-5, SPFFLLLLL]	3.73	3.74	12.5-25 × × 10e6/well	48-72 h^	3.575	2.75-4.4	0	No Influence	No proliferation	0 ng/mL	1.8	48-72 h^	0%	0 ng/mL	33%	2.75 to 5.5 ng/mL	50%	3.84 to 9.2 ng/mL	–	–	TNF-Alfa (PBL [4]; [8]): 14.8 ng/mL; TNF-Alfa (PBL [4]; peptide DC ratio 16:1, one out of five experiments, six donors, listed as VXL5): highest cytokine release
STPPVHNV [VXL-6, STPPVHNV, reference compound]	1.76	–	12.5-25 × × 10e6/well	120 h	1.125	1-1.25	0	No Influence	No proliferation	0 ng/mL	1.53	120 h	0%	0 ng/mL	8.3%	3.25 ng/mL	50%	7.56 to 11.4 ng/mL	1.44	0	IL-2 (PBL [4]; [8]): 0 ng/mL; TNF-Alfa (PBL [4]; [8]): 0 ng/mL; Optimal dose via PBMC (PBMC): 0.05 to 1 µg/mL
PADREAGVAA WTLKAAA (PADREAGVAAWTLKAAA) [VXL-14, reference compound]	–	–	–	–	–	–	–	–	–	–	–	–	–	–	–	–	–	–	2.94	0	–
MAARAVFLAL SAQLLQA (MAARAVFLALSAQLLQA; listed as Homo sapiens) [VXL-102, signal peptide vaccine derived from melanoma associated TAA BAGE]	–	–	–	–	–	–	–	–	–	–	–	–	–	–	–	–	–	–	–	0	IS (as indicated in Table 12) (PBL [1]): 1.9; TNF-Alfa (PBL [4]; [10]): 15.5 ng/mL
